Key:
[1] = system: poly(rA); assay: Circular dichroism spectroscopy of mixture with poly(rA); format: binding; settings: 10 mM sodium phosphate buffer pH 7.0; 200-300 nm
Experimental: (§1) FIG. 2A is a CD spectra of mixture of poly(rA) and (3a) at different equivalents of T; inset: plot of ε260 versus equivalents of T; FIG. 2B is a CD spectra of mixture of poly(dA) and (3a) at different equivalents of T. Conditions 10 mM sodium phosphate buffer pH 7.0. The concentration of poly (rA) and poly (dA) was 10 μM based on AMP.
(§2) All CD experiments were performed on a JASCO Model J-710/720 spectropolarimeter (Oxford Centre of Molecular Sciences, Oxford). The samples were prepared by mixing calculated amounts of stock oligonucleotide and cPNA solutions together in a 10 mm quartz cell and the final volumes were adjusted to 2.00 mL by addition of deionized water containing an appropriate amount of sodium phosphate buffer pH 7.0 to give the final AMP concentration of 5 mM and phosphate buffer of 10 mM. The spectra were measured at 20° C. from 300 to 200 nm and averaged 4 times then subtracted from a spectrum of pure water under the same conditions.

[2] = system: fluorescent labelled (dA)10; assay: Gel electrophoresis with fluorescent labelled (dA)10; format: binding; settings: F(dA)10:cPNA 1:1 to 1:10; 20% polyacrylamide gel, 90 mM TBE
Excerpt: The gel electrophoresis apparatus used was a SE6000 Vertical Slab Gel Electrophoresis Unit (Hoefer Scientific Instruments). The gel dimensions were 10×9.5×0.075 cm. The DC power sources was an Electrophoresis power supply model EPS-301 (Amersham Pharmacia Biotech). Acrylamide and N,N-methylene bisacrylamide were obtained as a concentrated aqueous stock solution from Fluka AG. Ammonium persulfate (electrophoresis grade) was obtained from Sigma Chemical Co. Tetramethylethylenediamine (TEMED) (electrophoresis grade) and hemicals necessary for preparing buffers were of the highest purity available from BDH. The stock 0.90 M Tris-Borate-EDTA (TBE) buffer pH 8.3 and the loading buffer (30% glycerol, 0.025% bromophenol blue and 0.025% xylene cyanol FF in 90 mM TBE as well as the 20% polyacrylamide gel in 90 mM TBE was prepared according to the literature (see Essential Molecular Biology, A Practical Approach, Vol 1, Oxford, 1991, pp 89-126).
The sample was prepared by mixing calculated amounts of the fluorescent labelled (dA)10 and PNA concentrated stock solutions in an Eppendorf tube to give the final total amounts of AMP ˜1 nmol and the molar ratio of F(dA)10:cPNA=1:1, 1:2, 1:3, 1:5 and 1:10. […]

[3] = system: poly(rI); assay: Tm (UV melting) control experiment with poly(rI); format: binding; settings: conditions as FIG. 1; dash with footnote b = no melting above 20° C. was observed
Experimental: (§3) FIG. 1 is a melting point curve for compound (3a) and poly (rA), (sigmoid curve with inflection at 53° C.) poly (rU) (rising straight line plot) and poly (dA) (falling straight line plot) Conditions: 10 mM sodium phosphate buffer pH 7.0; 150 mM NaCl; 1.0 μM (3a); ratio of T:A=1:1, 20% hypochromicity.
(§4) Poly(rA) (Mr˜7×10^6) and poly(rU) (Mr<9×10^5) was obtained from Fluka AG. Poly(dA) (Mr˜9.19×10^5) was obtained from Amersham Pharmacia Biotech. Poly(rI) was obtained from Sigma. The oligonucleotide, (dA)10 and fluorescent labelled (dA)10 was obtained in deprotected and hplc-purified form. All nucleic acids and oligonucleotides were used as received without further treatment.
(§5) The concentration of oligonucleotide, nucleic acid and cPNA solutions was determined from the absorbance at 260 nm (OD260). […]
(§6) Tm experiments were performed on a CARY 100 UV Spectrophotometer (Varian Ltd.) equipped with a thermal melt system. The sample for Tm measurement was prepared by mixing calculated amounts of stock oligonucleotide and cPNA solutions together to give final concentration of nucleotides and sodium phosphate buffer (pH 7.0) and the final volumes were adjusted to 3.0 mL by addition of deionized water. […] The OD260 was recorded in steps from 20-95° C. […] The results were normalized by dividing the absorbance at each temperature by the initial absorbance. […]

[4] = system: poly(rU); assay: Tm (UV melting) control experiment with poly(rU); format: binding; settings: conditions as FIG. 1; dash with footnote b = no melting above 20° C. was observed
Experimental: as §3, §4, §5, §6

[5] = Solubility in aqueous solvents; format: physicochemical
[6] = system: poly(rA); assay: Tm (UV melting) measurement of hybrid with poly(rA); format: binding
Experimental: as §3, §4, §5, §6

[7] = system: poly(dA); assay: Circular dichroism spectroscopy of mixture with poly(dA); format: binding; settings: 10 mM sodium phosphate buffer pH 7.0; same conditions as poly(rA)
Experimental: as §1, §2

[8] = system: poly(dA); assay: Tm (UV melting) measurement of hybrid with poly(dA); format: binding; settings: conditions as FIG. 1 (10 mM sodium phosphate pH 7.0; 150 mM NaCl; T:A=1:1); dash with footnote b = no melting above 20° C. was observed
Experimental: as §3, §4, §5, §6

Substance | change in CD signal on addition to poly(rA) [1] | binding to (dA)10 in gel electrophoresis [2] | Tm of hybrid with poly(rI) [3] | Tm of hybrid with poly(rU) [4] | achievable concentration in aqueous solvents [5] | solubility in aqueous solvents [5] | Tm of hybrid with poly(rA) ([6]; 10 mM sodium phosphate buffer pH 7.0, 150 mM NaCl, 1.0 μM (3a), T:A=1:1) | binding to poly(rA) at high salt concentration ([6]; 1.0 M NaCl) | change in CD signal on addition to poly(dA) [7] | Tm of hybrid with poly(dA) [8]
H-[(ψ-CH2)Gly-D-Pro(T)]10-LysNH2 [(3a)] | strong induced CD signal with a minima at 275 nm | lack of binding | no observable melting curve | no observable melting curve | exceeding 5 mg/mL | freely soluble in aqueous solvents | 53 °C | no binding | no significant change | 
H-[Acg(T)]10-LysNH3 [(1a)] |  |  |  |  |  |  |  |  |  | 73 °C
H-[Gly-o-Pro(cis-τ)]10-LysNH, [(2a)] |  |  |  |  |  |  |  |  |  | 70 °C

From patent US6716961B2, “Chiral peptide nucleic acids with a N-aminoethyl-d-proline backbone” (ISIS Innovation Limited, priority 2001, dated 2004)
